Source: paper PMC10222270, “Natural Product-Based Screening for Lead Compounds Targeting SARS CoV-2 M^pro” (Pharmaceuticals, 2023)
Several values for one entry are separate records, joined by “and”; a condition that tells them apart may be missing. Equal entries are not always repeated. Structures can show the parent of a compound that is named as a salt. Where two headings read alike, the source gives them in different places.

Experiments:
SARS CoV-2 M^pro [1] = target: T1, SARS CoV-2 M^pro (Severe acute respiratory syndrome coronavirus 2, UniProt P0DTD1); assay: Surface plasmon resonance (SPR) binding to biotinylated M^pro; conditions: for binding trend to M^pro: SPR, single concentration 200 μM
T1 construct: The main protease (M^pro) is a part of the polyprotein chain, also named 3C-like protease; SUMO (cleaved yes); His; made in house; host or cells: Escherichia coli BL21(DE3)

SARS CoV-2 M^pro [2] = target: T1, SARS CoV-2 M^pro; assay: biochemical; type: biochemical; conditions: for inhibition at 80 µM: read-out: Inhibition%(80μM)
SARS CoV-2 M^pro [3] = target: T1, SARS CoV-2 M^pro; assay: nanoDSF thermal shift assay (TSA); type: binding; conditions: for △T: versus M^pro+DMSO; for Kd: x-intercept of linear regression of ΔTm on log10 of compound concentration, read-out: Kobs
[4] = 0.02%(v/v) Triton X−100 in buffer
[5] = 80 μM compound, second value column of Table S2

| Compound | Inhibition%(80μM) (SARS CoV-2 M^pro [2]) | inhibition at 80 µM (SARS CoV-2 M^pro [2]) [%] | further results |
| --- | --- | --- | --- |
| COc1cc(C(=S)N2CCOCC2)ccc1O [vanitiolide, Vanitiolide] | 99.16% and 98.95% | 99.1 | binding trend to M^pro (SARS CoV-2 M^pro [1]): no binding trends; IC50 (SARS CoV-2 M^pro [2]; [4]): 1420 ± 76 nM; IC50 (SARS CoV-2 M^pro [2]; Without Triton X−100): 2840 ± 225 nM |
| CCCCCC/C=C\CCCCCCCc1cccc(O)c1C(=O)O [ginkgolic acid C15:1, Ginkgolic Acid C15:1] | 107.06% | 104 | Kd (SARS CoV-2 M^pro [1]; SPR multi-cycle mode, steady-state affinity, PBST, 7% DMSO): 227000 nM; IC50 (SARS CoV-2 M^pro [2]; Without Triton X−100): 9350 ± 531 nM |
| COc1cc2ccc(=O)oc2c(O)c1O [fraxetin, Fraxetin] | 97.85% and 96.97% | 96.8 | binding trend to M^pro (SARS CoV-2 M^pro [1]): no binding trends; IC50 (SARS CoV-2 M^pro [2]; [4]): 1300 ± 208 nM; IC50 (SARS CoV-2 M^pro [2]; Without Triton X−100): 2490 ± 178 nM |
| COc1cc(O)c2c(c1)oc(=O)c1c3cc(O)c(O)cc3oc21 [wedelolactone, Wedelolactone] | 101.88% and 102.36% | 102 | Tm of M^pro (SARS CoV-2 M^pro [3]; compound 3.125 μM): 55.2 °C; △T (SARS CoV-2 M^pro [3]; compound 3.125 μM): 0.3 °C; Tm of M^pro (SARS CoV-2 M^pro [3]; compound 50 μM): 55.8 °C; △T (SARS CoV-2 M^pro [3]; compound 50 μM): 0.9 °C; Tm of M^pro (SARS CoV-2 M^pro [3]; compound 200 μM): 56.1 °C; △T (SARS CoV-2 M^pro [3]; compound 200 μM): 1.2 °C; Kd (SARS CoV-2 M^pro [3]): 977 nM; IC50 (SARS CoV-2 M^pro [2]; [4]): 2510 ± 276 nM; IC50 (SARS CoV-2 M^pro [2]; Without Triton X−100): 1000 ± 238 nM |
| Cc1c(=O)c(=O)c2c3c[nH]c4c(C)c(=O)c(=O)c(c5c[nH]c1c52)c43 [melanin, Melanin] | 96.84% and 96.92% | 95.8 | Tm of M^pro (SARS CoV-2 M^pro [3]; compound 3.125 μM): 55.0 °C; △T (SARS CoV-2 M^pro [3]; compound 3.125 μM): 0.1 °C; Tm of M^pro (SARS CoV-2 M^pro [3]; compound 50 μM): 54.9 °C; △T (SARS CoV-2 M^pro [3]; compound 50 μM): 0.0 °C; Tm of M^pro (SARS CoV-2 M^pro [3]; compound 200 μM): 54.4 °C; △T (SARS CoV-2 M^pro [3]; compound 200 μM): -0.5 °C; Kd (SARS CoV-2 M^pro [3]): 11600 nM; IC50 (SARS CoV-2 M^pro [2]; Without Triton X−100): 7370 ± 368 nM |
| Cc1cc(=O)oc2cc(O)c(O)cc12 [4-Methylesculetin] | 77.57% | 79.1 | inhibition at 80 µM (SARS CoV-2 M^pro [2]; [5]): 79.9% |
| O=c1c(O)c(-c2cc(O)c(O)c(O)c2)oc2cc(O)cc(O)c12 [Myricetin] | 90.18% and 90.28% | 90.6 | – |
| CC(C)=CCCC1=CC(=O)c2c(O)ccc(O)c2C1=O [Deoxyshikonin] | 88.46% and 84.98% | 82.3 | – |
| O=C(O)CCc1ccc(O)c(O)c1 [Hydrocaffeic Acid] | 90.29% and 90.08% | 88.3 | – |
| C[C@@H]1OC(O[C@@H]2[C@@H](O)[C@H](OCCc3ccc(O)c(O)c3)O[C@H](CO[C@@H]3OC[C@@H](O)[C@H](O)[C@H]3O)[C@H]2OC(=O)/C=C/c2ccc(O)c(O)c2)[C@H](O)[C@H](O)[C@H]1O (stereo partly drawn) [Arenarioside] | 99.86% and 99.31% | 99.1 | – |
| CC(C)=CCC(O)C1=CC(=O)c2c(O)ccc(O)c2C1=O (racemic) [(±)-Shikonin] | 95.04% and 93.71% | 87.6 | – |
| C[n+]1cc2c3c(ccc2c2ccc4cc5c(cc4c21)OCO5)OCO3 [sanguinarine, Sanguinarine] | 107.86% and 107.40% and 108.34% | – | result of retest over a concentration range (SARS CoV-2 M^pro [2]; gradient concentrations): no inhibitory effect on M^pro when retested |
| CC(C)=CC[C@H](OC(=O)C=C(C)C)C1=CC(=O)c2c(O)ccc(O)c2C1=O [β,β–dimethylacrylalkannin, β,β-Dimethylacrylalkannin] | 99.09% and 97.96% | 100 | Tm of M^pro (SARS CoV-2 M^pro [3]; compound 50 μM): 57.7 °C; △T (SARS CoV-2 M^pro [3]; compound 50 μM): 2.8 °C; Tm of M^pro (SARS CoV-2 M^pro [3]; compound 200 μM): 58.3 °C; △T (SARS CoV-2 M^pro [3]; compound 200 μM): 3.4 °C; Kd (SARS CoV-2 M^pro [3]): 1900 nM; IC50 (SARS CoV-2 M^pro [2]; [4]): 2890 ± 185 nM; IC50 (SARS CoV-2 M^pro [2]; Without Triton X−100): 2730 ± 308 nM |
| CCCCCCCC/C=C\CCCCCCCCC(=O)O [10Z-Nonadecenoic acid] | 126.52% and 101.02% and 101.53% | – | – |
| CC(C)CCCC(C)C1CCC2C3CC=C4CC(OS(=O)(=O)O)CCC4(C)C3CCC12C (stereo not drawn) [cholesteryl sodium sulfate, Cholesteryl sodium sulfate] | 100.30% and 100.48% | 100 | Tm of M^pro (SARS CoV-2 M^pro [3]; compound 3.125 μM): 55.0 °C; △T (SARS CoV-2 M^pro [3]; compound 3.125 μM): 0.1 °C; Tm of M^pro (SARS CoV-2 M^pro [3]; compound 50 μM): 54.1 °C; △T (SARS CoV-2 M^pro [3]; compound 50 μM): -0.8 °C; Tm of M^pro (SARS CoV-2 M^pro [3]; compound 200 μM): 48.9 °C; △T (SARS CoV-2 M^pro [3]; compound 200 μM): -6.0 °C; Kd (SARS CoV-2 M^pro [3]): 7600 nM; IC50 (SARS CoV-2 M^pro [2]; Without Triton X−100): 2740 ± 234 nM |
| COC(=O)[C@@H](Cc1ccc(O)c(O)c1)OC(=O)[C@@H]1c2c(/C=C/C(=O)O[C@H](Cc3ccc(O)c(O)c3)C(=O)O)ccc(O)c2O[C@H]1c1ccc(O)c(O)c1 [9'-Methyl Lithospermate B] | 72.67% and 74.36% | 73.6 | – |

| Compound | Inhibition%(80μM) (SARS CoV-2 M^pro [2]) | inhibition at 80 µM (SARS CoV-2 M^pro [2]) [%] | further results |
| --- | --- | --- | --- |
| CC1=CC(=O)c2c(O)cccc2C1=O [Plumbagin] | 74.76% and 75.47% | 70.2 | – |
| O=C(O[C@@H]1Cc2c(O)cc(O)cc2O[C@@H]1c1cc(O)c(O)c(O)c1)c1cc(O)c(O)c(O)c1 [(-)-Epigallocatechin Gallate] | 85.53% and 79.02% | 82.6 | – |
| O=P(O)(O)O[C@H]1[C@H](OP(=O)(O)O)[C@@H](OP(=O)(O)O)[C@H](OP(=O)(O)O)[C@@H](OP(=O)(O)O)[C@H]1OP(=O)(O)O [Phytic Acid] | 97.45% and 98.02% | 97.6 | – |
| CCCCCC/C=C\CCCCCCCCCc1cccc(O)c1C(=O)O [Ginkgolic Acid C17:1] | 100.63% and 101.61% | 102 | – |
| COc1ccc2c(c[n+](C)c3c4cc5c(cc4ccc23)OCO5)c1OC [Chelerythrine] | 98.97% and 99.51% | 99.4 | – |
| COc1ccc2c(c[n+](C)c3c4cc5c(cc4ccc23)OCO5)c1OC [Chelerythrine chloride] | 98.66% and 98.31% and 98.46% | – | – |
| CCCCCCCCCCC/C=C\CCCCC(=O)O [Petroselinic Acid] | 105.29% and 103.73% | 104 | – |
| CCCCCCCC/C=C/CCCCCCCC(=O)O [Elaidic Acid] | 79.40% and 87.31% | 74.9 | – |
| CC(=O)OCCc1ccc(O)c(O)c1 [hydroxytyrosol acetate, Hydroxytyrosol Acetate] | 103.09% and 102.91% | 103 | binding trend to M^pro (SARS CoV-2 M^pro [1]): no binding trends; IC50 (SARS CoV-2 M^pro [2]; [4]): 3780 ± 453 nM; IC50 (SARS CoV-2 M^pro [2]; Without Triton X−100): 3850 ± 576 nM |
| Oc1cc(O)cc(/C=C/c2c(O)cccc2O)c1 [Gnetol] | 81.39% and 81.62% | 81.5 | – |
| OC[C@]1(O)COc2cc(O)ccc2-c2cc(O)c(O)cc2C1 [(7S)-3,7,10,11-Tetrahydroxy-7,8-dihydro-6H-dibenzo[b,d]oxocin-7-methanol] | 101.15% and 101.14% and 101.45% | – | – |
| O=c1cc(-c2ccccc2)oc2cc(O)c(O)c(O)c12 [baicalein, Baicalein, reference compound] | – | – | Tm of M^pro (SARS CoV-2 M^pro [3]; compound 3.125 μM): 55.2 °C; △T (SARS CoV-2 M^pro [3]; compound 3.125 μM): 0.3 °C; Tm of M^pro (SARS CoV-2 M^pro [3]; compound 50 μM): 56.6 °C; △T (SARS CoV-2 M^pro [3]; compound 50 μM): 1.7 °C; Tm of M^pro (SARS CoV-2 M^pro [3]; compound 200 μM): 57.0 °C; △T (SARS CoV-2 M^pro [3]; compound 200 μM): 2.1 °C; inhibition at 80 µM (SARS CoV-2 M^pro [2]; 80 μM compound, first value column of Table S2): 99.9%; inhibition at 80 µM (SARS CoV-2 M^pro [2]; [5]): 101%; inhibition at 80 µM (SARS CoV-2 M^pro [2]; 80 μM compound, third value column of Table S2): 98.7% |
| OCCc1ccc(O)c(O)c1 [3,4-Dihydroxyphenylethanol] | 102.33% and 102.25% | 101 | – |
| Forsythoside B | 92.91% and 95.11% and 93.46% | – | – |
| O=c1c(O)c(-c2ccc(O)c(O)c2)oc2cc(O)c(O)c(O)c12 [3,3',4',5,6,7-Hexahydroxyflavone] | 99.40% and 98.98% and 98.10% | – | – |
